The record followed here is patent US9340590B2 (priority 2011, dated 2016).

Common to all, as to experiment: cell-based
The target in one test is hNav1.7 (Homo sapiens, UniProt Q15858). It counts as cell-based. The conditions noted are these: IonWorks Quattro, use-dependent block, hNav1.7; read-out: IWQ Use Nav1.7.
The target in another test is hNav1.5 (Homo sapiens, UniProt Q14524). The conditions noted are these: IonWorks Quattro, use-dependent block, hNav1.5; read-out: IWQ Use Nav1.5.
The target of the next test is hNav1.3 (Homo sapiens, UniProt Q9NY46). The following applies: IonWorks Quattro, use-dependent block, hNav1.3; read-out: IWQ Use Nav1.3. In general terms: In patch-clamp work, channel activity is measured electrically.

SMILES strings stand for the structures. Positions of bridges follow the written chain, without caps; N, C: chain ends. Non-standard residues stand in square brackets, D forms with d. Residues, ends and D or L forms follow the SMILES beside them. 1Nal = N[C@@H](Cc1cccc2ccccc12)C(=O)O

hNav1.3, sequence (Q9NY46 whole entry, looked up): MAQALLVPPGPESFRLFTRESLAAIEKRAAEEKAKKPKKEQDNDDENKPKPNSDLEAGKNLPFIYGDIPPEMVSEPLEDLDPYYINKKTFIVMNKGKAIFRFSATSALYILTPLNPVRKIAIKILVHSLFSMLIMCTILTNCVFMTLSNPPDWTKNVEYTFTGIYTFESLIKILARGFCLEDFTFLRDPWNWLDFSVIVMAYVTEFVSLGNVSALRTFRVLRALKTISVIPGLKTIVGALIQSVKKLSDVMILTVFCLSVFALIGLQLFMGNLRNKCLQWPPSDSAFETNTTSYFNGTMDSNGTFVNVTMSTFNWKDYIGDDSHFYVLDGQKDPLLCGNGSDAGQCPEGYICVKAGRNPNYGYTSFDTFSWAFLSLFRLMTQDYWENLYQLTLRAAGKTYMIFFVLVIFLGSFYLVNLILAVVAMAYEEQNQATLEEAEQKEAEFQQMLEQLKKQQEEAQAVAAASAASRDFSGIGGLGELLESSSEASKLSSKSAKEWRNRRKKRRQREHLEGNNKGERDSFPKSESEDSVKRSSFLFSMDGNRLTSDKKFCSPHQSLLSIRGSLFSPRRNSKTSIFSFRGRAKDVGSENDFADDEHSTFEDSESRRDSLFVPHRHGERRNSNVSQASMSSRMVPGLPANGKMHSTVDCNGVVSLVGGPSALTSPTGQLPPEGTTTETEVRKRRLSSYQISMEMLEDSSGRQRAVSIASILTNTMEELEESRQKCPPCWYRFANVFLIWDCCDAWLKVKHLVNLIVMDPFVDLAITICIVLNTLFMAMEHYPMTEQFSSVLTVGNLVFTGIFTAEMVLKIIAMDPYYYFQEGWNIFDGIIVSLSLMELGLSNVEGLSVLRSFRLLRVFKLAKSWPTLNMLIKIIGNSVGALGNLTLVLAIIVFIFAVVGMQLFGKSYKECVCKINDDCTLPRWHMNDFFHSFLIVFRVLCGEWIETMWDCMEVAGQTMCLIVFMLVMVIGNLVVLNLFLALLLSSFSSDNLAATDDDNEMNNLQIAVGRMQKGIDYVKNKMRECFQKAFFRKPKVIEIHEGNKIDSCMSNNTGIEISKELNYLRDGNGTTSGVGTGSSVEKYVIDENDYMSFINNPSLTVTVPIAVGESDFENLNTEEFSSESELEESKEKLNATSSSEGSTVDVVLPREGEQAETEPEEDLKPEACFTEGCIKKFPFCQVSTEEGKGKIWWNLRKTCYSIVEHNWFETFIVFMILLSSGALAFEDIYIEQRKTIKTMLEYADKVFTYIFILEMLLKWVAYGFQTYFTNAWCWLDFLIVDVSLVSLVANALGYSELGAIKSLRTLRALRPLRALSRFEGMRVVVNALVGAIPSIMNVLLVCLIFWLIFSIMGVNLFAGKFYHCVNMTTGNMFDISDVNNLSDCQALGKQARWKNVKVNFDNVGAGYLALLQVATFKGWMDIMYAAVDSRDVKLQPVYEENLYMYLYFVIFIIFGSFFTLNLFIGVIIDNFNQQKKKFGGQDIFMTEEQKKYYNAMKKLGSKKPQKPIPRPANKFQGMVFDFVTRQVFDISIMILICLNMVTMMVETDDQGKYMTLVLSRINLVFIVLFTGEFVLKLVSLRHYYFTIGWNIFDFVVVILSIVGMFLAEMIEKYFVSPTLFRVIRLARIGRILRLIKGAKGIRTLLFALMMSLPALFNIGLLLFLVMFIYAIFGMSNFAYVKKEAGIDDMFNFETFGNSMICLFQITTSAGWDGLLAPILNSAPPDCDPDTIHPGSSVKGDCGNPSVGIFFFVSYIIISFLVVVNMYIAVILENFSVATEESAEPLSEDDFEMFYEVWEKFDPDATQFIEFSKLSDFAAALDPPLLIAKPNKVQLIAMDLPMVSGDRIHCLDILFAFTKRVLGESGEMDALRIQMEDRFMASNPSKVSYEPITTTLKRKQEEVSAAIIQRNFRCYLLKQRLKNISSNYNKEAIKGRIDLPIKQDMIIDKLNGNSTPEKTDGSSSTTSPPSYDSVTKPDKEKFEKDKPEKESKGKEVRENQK
hNav1.7, sequence (Q15858 whole entry, looked up): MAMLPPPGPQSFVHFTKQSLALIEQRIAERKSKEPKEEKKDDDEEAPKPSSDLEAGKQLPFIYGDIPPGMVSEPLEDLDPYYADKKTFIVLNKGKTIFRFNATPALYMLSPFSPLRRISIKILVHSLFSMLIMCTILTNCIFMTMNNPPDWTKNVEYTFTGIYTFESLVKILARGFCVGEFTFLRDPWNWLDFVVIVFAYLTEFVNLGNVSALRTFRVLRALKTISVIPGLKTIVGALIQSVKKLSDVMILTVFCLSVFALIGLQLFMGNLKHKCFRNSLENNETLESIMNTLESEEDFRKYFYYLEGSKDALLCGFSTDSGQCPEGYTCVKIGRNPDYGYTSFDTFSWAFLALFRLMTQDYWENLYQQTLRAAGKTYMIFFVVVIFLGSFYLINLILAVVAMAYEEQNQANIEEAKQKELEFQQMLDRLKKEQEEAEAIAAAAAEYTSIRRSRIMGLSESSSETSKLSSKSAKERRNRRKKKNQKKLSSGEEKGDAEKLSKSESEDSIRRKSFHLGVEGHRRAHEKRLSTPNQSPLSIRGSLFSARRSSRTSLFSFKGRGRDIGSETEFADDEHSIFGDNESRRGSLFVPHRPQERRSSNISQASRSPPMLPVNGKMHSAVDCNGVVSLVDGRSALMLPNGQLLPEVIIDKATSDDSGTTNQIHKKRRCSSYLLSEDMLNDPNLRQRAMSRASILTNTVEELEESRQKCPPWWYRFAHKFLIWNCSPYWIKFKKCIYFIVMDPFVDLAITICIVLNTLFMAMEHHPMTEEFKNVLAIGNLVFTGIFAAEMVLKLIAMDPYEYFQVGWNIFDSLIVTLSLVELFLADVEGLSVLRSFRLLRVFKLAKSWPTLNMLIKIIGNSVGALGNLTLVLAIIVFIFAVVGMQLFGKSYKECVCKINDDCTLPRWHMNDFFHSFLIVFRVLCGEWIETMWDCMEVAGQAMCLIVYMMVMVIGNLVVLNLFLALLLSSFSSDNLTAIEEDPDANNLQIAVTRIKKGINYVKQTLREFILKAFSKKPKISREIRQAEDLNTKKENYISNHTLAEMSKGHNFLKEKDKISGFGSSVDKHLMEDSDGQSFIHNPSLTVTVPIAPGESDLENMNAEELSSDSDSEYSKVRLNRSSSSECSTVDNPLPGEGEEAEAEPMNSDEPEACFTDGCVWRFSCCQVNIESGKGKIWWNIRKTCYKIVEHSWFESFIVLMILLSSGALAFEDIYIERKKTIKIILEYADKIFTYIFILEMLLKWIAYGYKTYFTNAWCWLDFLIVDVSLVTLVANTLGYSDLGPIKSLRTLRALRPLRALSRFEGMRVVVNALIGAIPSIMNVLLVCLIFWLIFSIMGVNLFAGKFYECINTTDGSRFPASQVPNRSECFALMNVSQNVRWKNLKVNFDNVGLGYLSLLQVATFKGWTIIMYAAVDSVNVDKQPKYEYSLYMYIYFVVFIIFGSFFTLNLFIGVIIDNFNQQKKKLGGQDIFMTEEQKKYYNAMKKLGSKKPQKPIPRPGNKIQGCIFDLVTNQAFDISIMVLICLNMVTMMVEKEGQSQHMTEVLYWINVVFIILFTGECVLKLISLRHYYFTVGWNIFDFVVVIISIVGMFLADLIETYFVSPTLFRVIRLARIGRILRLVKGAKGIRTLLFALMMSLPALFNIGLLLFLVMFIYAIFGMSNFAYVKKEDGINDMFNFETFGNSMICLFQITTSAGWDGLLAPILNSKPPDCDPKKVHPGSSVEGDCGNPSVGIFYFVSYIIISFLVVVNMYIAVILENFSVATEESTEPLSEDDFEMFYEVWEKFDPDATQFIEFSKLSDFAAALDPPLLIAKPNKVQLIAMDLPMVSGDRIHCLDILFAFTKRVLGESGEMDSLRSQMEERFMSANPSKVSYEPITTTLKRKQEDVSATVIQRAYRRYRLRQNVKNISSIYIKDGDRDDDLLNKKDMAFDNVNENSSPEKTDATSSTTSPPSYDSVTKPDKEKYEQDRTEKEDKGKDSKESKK

For the compound `CC[C@H](C)[C@@H]1NC(=O)[C@@H]2CSSC[C@@H]3NC(=O)[C@H](C(C)C)NC(=O)[C@H](CC(C)C)NC(=O)[C@H](CC(N)=O)NC(=O)[C@@H]4CCCN4C(=O)[C@H](CCCNC(=N)N)NC(=O)[C@H](CSSC[C@H](NC(=O)[C@@H](N)CC(=O)O)C(=O)N[C@@H](CC(C)C)C(=O)NCC(=O)N[C@@H](Cc4ccccc4)C(=O)N[C@@H](Cc4c[nH]c5ccccc45)C(=O)N[C@@H](CCCNC(=N)N)C(=O)N[C@@H](CCCCN)C(=O)N2)NC(=O)[C@H](CSSC[C@@H](C(=O)N[C@@H](CCCCN)C(=O)N[C@@H](Cc2c[nH]c4ccccc24)C(=O)N[C@H](C(=O)N[C@@H](Cc2ccccc2)C(N)=O)C(C)C)NC(=O)[C@H](Cc2c[nH]c4ccccc24)NC(=O)[C@H](CCCCN)NC(=O)[C@H](Cc2c[nH]cn2)NC(=O)[C@H]([C@@H](C)O)NC(=O)[C@H](CCCNC(=N)N)NC(=O)[C@H](CO)NC3=O)NC(=O)[C@H](CCCCN)NC(=O)[C@H](CC(=O)O)NC(=O)[C@H](CC(N)=O)NC(=O)[C@H](CC(=O)O)NC(=O)[C@@H]2CCCN2C1=O` [compound 449] (H-DCLGFWRKCIPDNDKCCRPNLVCSRTHKWCKWVF-NH2; disulfide 2-17, 9-23, 16-30), the values for the IC50 at hNav1.7, at hNav1.5 and on hNav1.3 were 30 nM, 2930 nM and 10 nM, respectively.
The matching figures for `CC[C@H](C)[C@@H]1NC(=O)[C@@H]2CSSC[C@@H]3NC(=O)[C@H](C(C)C)NC(=O)[C@H](CC(C)C)NC(=O)[C@H](CC(N)=O)NC(=O)[C@@H]4CCCN4C(=O)[C@H](CCCNC(=N)N)NC(=O)[C@H](CSSC[C@H](NC(=O)[C@@H](N)CC(=O)O)C(=O)N[C@@H](CC(C)C)C(=O)NCC(=O)N[C@@H](Cc4ccccc4)C(=O)N[C@@H](CCSC)C(=O)N[C@@H](CCCNC(=N)N)C(=O)N[C@@H](CCCCN)C(=O)N2)NC(=O)[C@H](CSSC[C@@H](C(=O)N[C@@H](CCCCN)C(=O)N[C@@H](Cc2c[nH]c4ccccc24)C(=O)N[C@@H](Cc2c[nH]c4ccccc24)C(=O)N[C@@H](Cc2ccccc2)C(N)=O)NC(=O)[C@H](Cc2c[nH]c4ccccc24)NC(=O)[C@H](CCCCN)NC(=O)[C@H](Cc2c[nH]cn2)NC(=O)[C@H]([C@@H](C)O)NC(=O)[C@H](CCCNC(=N)N)NC(=O)[C@H](CO)NC3=O)NC(=O)[C@H](CCCCN)NC(=O)[C@H](CC(=O)O)NC(=O)[C@H](CC(N)=O)NC(=O)[C@H](CC(=O)O)NC(=O)[C@@H]2CCCN2C1=O` [compound 450] (H-DCLGFMRKCIPDNDKCCRPNLVCSRTHKWCKWWF-NH2; disulfide 2-17, 9-23, 16-30): 50 nM, 11500 nM and 30 nM.
On to `CSCC[C@@H]1NC(=O)[C@H](Cc2ccccc2)NC(=O)CNC(=O)[C@H](CC(C)C)NC(=O)[C@@H](NC(=O)[C@@H](N)CC(=O)O)CSSC[C@@H]2NC(=O)[C@@H]3CSSC[C@@H](C(=O)N[C@@H](CCCCN)C(=O)N[C@@H](Cc4cccc5ccccc45)C(=O)N[C@H](C(=O)N[C@@H](Cc4ccccc4)C(N)=O)C(C)C)NC(=O)[C@H](Cc4c[nH]c5ccccc45)NC(=O)[C@H](CCCCN)NC(=O)[C@H](Cc4c[nH]cn4)NC(=O)[C@H]([C@@H](C)O)NC(=O)[C@H](CCCNC(=N)N)NC(=O)[C@H](CO)NC(=O)[C@H](CSSC[C@H](NC(=O)[C@H](CCCCN)NC(=O)[C@H](CCCNC(=N)N)NC1=O)C(=O)N[C@@H](Cc1cccc4ccccc14)C(=O)N1CCC[C@H]1C(=O)N[C@@H](CC(=O)O)C(=O)N[C@@H](CC(N)=O)C(=O)N[C@@H](CC(=O)O)C(=O)N[C@@H](CCCCN)C(=O)N3)NC(=O)[C@H](C(C)C)NC(=O)[C@H](CC(C)C)NC(=O)[C@H](CC(N)=O)NC(=O)[C@@H]1CCCN1C(=O)[C@H](CCCNC(=N)N)NC2=O` [compound 452], for which the results for the IC50 at hNav1.7, at hNav1.5 and at hNav1.3 were 5 nM, over 5000 nM and 3 nM, respectively.
The matching figures for `CC[C@H](C)[C@@H]1NC(=O)[C@@H]2CSSC[C@@H]3NC(=O)[C@H](C(C)C)NC(=O)[C@H](CC(C)C)NC(=O)[C@H](CC(N)=O)NC(=O)[C@@H]4CCCN4C(=O)[C@H](CCCNC(=N)N)NC(=O)[C@H](CSSC[C@H](NC(=O)[C@@H](N)CC(=O)O)C(=O)N[C@@H](CC(C)C)C(=O)NCC(=O)N[C@@H](Cc4ccccc4)C(=O)N[C@@H](CCSC)C(=O)N[C@@H](CCCNC(=N)N)C(=O)N[C@@H](CCCCN)C(=O)N2)NC(=O)[C@H](CSSC[C@@H](C(=O)N[C@@H](CCCCN)C(=O)N[C@@H](Cc2cccc4ccccc24)C(=O)N[C@H](C(=O)N[C@@H](Cc2ccccc2)C(N)=O)C(C)C)NC(=O)[C@H](Cc2c[nH]c4ccccc24)NC(=O)[C@H](CCCCN)NC(=O)[C@H](Cc2c[nH]cn2)NC(=O)[C@H](CC(C)C)NC(=O)[C@H](CCCNC(=N)N)NC(=O)[C@H](CO)NC3=O)NC(=O)[C@H](CCCCN)NC(=O)[C@H](CC(=O)O)NC(=O)[C@H](CC(N)=O)NC(=O)[C@H](CC(=O)O)NC(=O)[C@@H]2CCCN2C1=O` [compound 453] (H-DCLGFMRKCIPDNDKCCRPNLVCSRLHKWCK[1Nal]VF-NH2; disulfide 2-17, 9-23, 16-30): 10 nM, over 5000 nM and 10 nM.
With `CC[C@H](C)[C@@H]1NC(=O)[C@@H]2CSSC[C@@H]3NC(=O)[C@H](C(C)C)NC(=O)[C@H](CC(C)C)NC(=O)[C@H](CC(N)=O)NC(=O)[C@@H]4CCCN4C(=O)[C@H](CCCNC(=N)N)NC(=O)[C@H](CSSC[C@H](NC(=O)[C@@H](N)CC(=O)O)C(=O)N[C@@H](CC(C)C)C(=O)NCC(=O)N[C@@H](Cc4ccccc4)C(=O)N[C@@H](CCSC)C(=O)N[C@@H](CCCNC(=N)N)C(=O)N[C@@H](CCCCN)C(=O)N2)NC(=O)[C@H](CSSC[C@@H](C(=O)N[C@@H](CCCCN)C(=O)N[C@@H](Cc2c[nH]c4ccccc24)C(=O)N[C@@H](Cc2cccc4ccccc24)C(=O)N[C@@H](Cc2ccccc2)C(N)=O)NC(=O)[C@H](Cc2c[nH]c4ccccc24)NC(=O)[C@H](CCCCN)NC(=O)[C@H](Cc2c[nH]cn2)NC(=O)[C@H]([C@@H](C)O)NC(=O)[C@H](CCCNC(=N)N)NC(=O)[C@H](CO)NC3=O)NC(=O)[C@H](CCCCN)NC(=O)[C@H](CC(=O)O)NC(=O)[C@H](CC(N)=O)NC(=O)[C@H](CC(=O)O)NC(=O)[C@@H]2CCCN2C1=O` [compound 455] (H-DCLGFMRKCIPDNDKCCRPNLVCSRTHKWCKW[1Nal]F-NH2; disulfide 2-17, 9-23, 16-30), the values for the IC50 at hNav1.7, at hNav1.5 and on hNav1.3 were 20 nM, over 5000 nM and 40 nM, respectively.
The matching figures for `CC[C@H](C)[C@@H]1NC(=O)[C@@H]2CSSC[C@@H]3NC(=O)[C@H](C(C)C)NC(=O)[C@H](CC(C)C)NC(=O)[C@H](CC(N)=O)NC(=O)[C@@H]4CCCN4C(=O)[C@H](CCCNC(=N)N)NC(=O)[C@H](CSSC[C@H](NC(=O)[C@@H](N)CC(=O)O)C(=O)N[C@@H](CC(C)C)C(=O)NCC(=O)N[C@@H](Cc4ccccc4)C(=O)N[C@@H](Cc4c[nH]c5ccccc45)C(=O)N[C@@H](CCCNC(=N)N)C(=O)N[C@@H](CCCCN)C(=O)N2)NC(=O)[C@H](CSSC[C@@H](C(=O)N[C@@H](CCCCN)C(=O)N[C@@H](Cc2ccc(O)cc2)C(=O)N[C@H](C(=O)N[C@@H](Cc2ccccc2)C(N)=O)C(C)C)NC(=O)[C@H](Cc2c[nH]c4ccccc24)NC(=O)[C@H](CCCCN)NC(=O)[C@H](Cc2c[nH]cn2)NC(=O)[C@H](CC(C)C)NC(=O)[C@H](CCCNC(=N)N)NC(=O)[C@H](CO)NC3=O)NC(=O)[C@H](CCCCN)NC(=O)[C@H](CC(=O)O)NC(=O)[C@H](CC(N)=O)NC(=O)[C@H](CC(=O)O)NC(=O)[C@@H]2CCCN2C1=O` [compound 456] (H-DCLGFWRKCIPDNDKCCRPNLVCSRLHKWCKYVF-NH2; disulfide 2-17, 9-23, 16-30): 30 nM, over 5000 nM and 10 nM.
